Results published in the NIST ThermoML archive (doi:10.1016/j.fluid.2004.09.013).

Details: for mass density: Fluid (supercritical or subcritical phases), Vibrating tube method; for vapor or sublimation pressure: Liquid

C/C=C/C [(E)-2-butene]
Details | mass density [kg/m3]
273.24 K, 553 kPa | 627.87
273.24 K, 4992 kPa | 633.27
273.24 K, 9995 kPa | 638.88
273.24 K, 14991 kPa | 644.04
273.24 K, 19997 kPa | 648.86
273.24 K, 24996 kPa | 653.38
273.24 K, 29993 kPa | 657.62
273.24 K, 34997 kPa | 661.64
273.24 K, 39989 kPa | 665.43
278.25 K, 553 kPa | 622.2
278.25 K, 4990 kPa | 627.88
278.25 K, 10005 kPa | 633.76
278.25 K, 15007 kPa | 639.16
278.25 K, 20007 kPa | 644.16
278.25 K, 24990 kPa | 648.82
278.25 K, 30005 kPa | 653.23
278.25 K, 34987 kPa | 657.36
278.25 K, 40004 kPa | 661.3
283.26 K, 551 kPa | 616.48
283.26 K, 4990 kPa | 622.46
283.26 K, 9993 kPa | 628.6
283.26 K, 15009 kPa | 634.25
283.26 K, 20003 kPa | 639.45
283.26 K, 24994 kPa | 644.29
283.26 K, 29985 kPa | 648.83
283.26 K, 35008 kPa | 653.12
283.26 K, 40005 kPa | 657.17
288.27 K, 548 kPa | 610.68
288.27 K, 4995 kPa | 616.99
288.27 K, 9994 kPa | 623.43
288.27 K, 14992 kPa | 629.3
288.27 K, 19992 kPa | 634.71
288.27 K, 24999 kPa | 639.75
288.27 K, 29993 kPa | 644.44
288.27 K, 34985 kPa | 648.85
288.27 K, 40007 kPa | 653.04
293.28 K, 550 kPa | 604.8
293.28 K, 4985 kPa | 611.45
293.28 K, 9991 kPa | 618.21
293.28 K, 14993 kPa | 624.34
293.28 K, 19997 kPa | 629.98
293.28 K, 24993 kPa | 635.19
293.28 K, 29998 kPa | 640.06
293.28 K, 35013 kPa | 644.64
293.28 K, 39998 kPa | 648.92
298.29 K, 551 kPa | 598.83
298.29 K, 4989 kPa | 605.85
298.29 K, 14986 kPa | 619.36
298.29 K, 19984 kPa | 625.21
298.29 K, 25012 kPa | 630.65
298.29 K, 29999 kPa | 635.67
298.29 K, 34986 kPa | 640.36
298.29 K, 39987 kPa | 644.79
298.3 K, 9994 kPa | 612.96
303.3 K, 590 kPa | 592.81
303.3 K, 4982 kPa | 600.18
303.3 K, 9998 kPa | 607.66
303.3 K, 19987 kPa | 620.43
303.3 K, 25004 kPa | 626.07
303.3 K, 29998 kPa | 631.26
303.3 K, 35005 kPa | 636.13
303.31 K, 15001 kPa | 614.35
303.31 K, 39999 kPa | 640.69
308.31 K, 635 kPa | 586.69
308.31 K, 4989 kPa | 594.43
308.32 K, 10005 kPa | 602.29
308.32 K, 14996 kPa | 609.28
308.32 K, 19995 kPa | 615.63
308.32 K, 24994 kPa | 621.44
308.32 K, 29983 kPa | 626.82
308.32 K, 35009 kPa | 631.86
308.32 K, 39996 kPa | 636.54
313.2 K, 869 kPa | 580.91
313.21 K, 4996 kPa | 588.66
313.21 K, 10004 kPa | 596.91
313.21 K, 14989 kPa | 604.2
313.21 K, 20008 kPa | 610.83
313.21 K, 24999 kPa | 616.85
313.21 K, 29996 kPa | 622.41
313.21 K, 34992 kPa | 627.58
313.21 K, 39986 kPa | 632.41
318.21 K, 939 kPa | 574.67
318.21 K, 5000 kPa | 582.76
318.21 K, 9985 kPa | 591.43
318.21 K, 14990 kPa | 599.1
318.21 K, 20004 kPa | 605.99
318.21 K, 25005 kPa | 612.25
318.21 K, 29987 kPa | 617.99
318.21 K, 34986 kPa | 623.33
318.21 K, 39990 kPa | 628.31
323.22 K, 1000 kPa | 568.23
323.22 K, 4994 kPa | 576.71
323.22 K, 9997 kPa | 585.9
323.22 K, 14997 kPa | 593.93
323.22 K, 19997 kPa | 601.1
323.22 K, 24992 kPa | 607.59
323.22 K, 30007 kPa | 613.57
323.22 K, 34983 kPa | 619.06
323.22 K, 39993 kPa | 624.2
328.22 K, 1068 kPa | 561.65
328.22 K, 4987 kPa | 570.54
328.22 K, 9989 kPa | 580.26
328.22 K, 14994 kPa | 588.69
328.22 K, 19994 kPa | 596.17
328.22 K, 24990 kPa | 602.92
328.22 K, 30006 kPa | 609.12
328.22 K, 34984 kPa | 614.78

Details | vapor or sublimation pressure [kPa]
274.84 K | 105.09
278.8 K | 122.11
283.68 K | 145.21
287.85 K | 167.86
292.59 K | 196.47
296.57 K | 221.89
307.78 K | 313.51
313.09 K | 365.29
318.13 K | 418.65
327.87 K | 543.04
